From the NIST ThermoML archive (doi:10.1021/je7003963)

Assay: mn = molality of the nth substance listed, in mol/kg
Conditions: 293.15 K; for speed of sound / mass density: 101 kPa, Liquid; for speed of sound: Sing-around technique in a fixed-path interferometer; for mass density: Vibrating tube method

CN1CCN(CCCN2c3ccccc3Sc3ccc(C(F)(F)F)cc32)CC1.Cl.Cl [trifluoperazine dihydrochloride] + O
Conditions	mass density [kg/m3]	speed of sound [m/s]	surface tension liquid-gas [mN/m]
m1 = 0.003	–	–	58.1
m1 = 0.004	–	–	55.1
m1 = 0.005	–	–	51.4
m1 = 0.006	–	–	51.1
m1 = 0.007	–	–	49.6
m1 = 0.0079	999.369	1484.1	–
m1 = 0.008	–	–	47.7
m1 = 0.00895	999.513	1484.3	–
m1 = 0.009	–	–	47.7
m1 = 0.01	–	–	46.5
m1 = 0.011	999.803	1484.7	–
m1 = 0.01547	1000.45	1485.5	–
m1 = 0.02109	1001.24	1486.4	–
m1 = 0.025	–	–	46
m1 = 0.0286	1002.31	1487.8	–
m1 = 0.03996	1003.91	1489.8	–
m1 = 0.0492	1005.18	1491.3	–
m1 = 0.05	–	–	46.5
m1 = 0.06004	1006.67	1493	–
m1 = 0.075	–	–	45.9
m1 = 0.07991	1009.39	1496.2	–
m1 = 0.09979	1012.03	1498.3	–
m1 = 0.1	–	–	46.6
m1 = 0.1248	1015.25	1500.6	–
m1 = 0.125	–	–	46.5
m1 = 0.1496	1018.45	1502.9	–
m1 = 0.15	–	–	45.9
m1 = 0.1737	1021.45	1505.1	–
m1 = 0.1994	1024.63	1507.3	–
m1 = 0.2245	1027.65	1509.5	–
m1 = 0.2494	1030.56	1511.7	–
m1 = 0.2749	1033.52	1513.6	–
m1 = 0.2998	1036.3	1515.8	–

Cl.Cl.OCCN1CCN(CCCN2c3ccccc3Sc3ccc(C(F)(F)F)cc32)CC1 [fluphenazine dihydrochloride] + O
Conditions	mass density [kg/m3]	speed of sound [m/s]	surface tension liquid-gas [mN/m]
m1 = 0.001	–	–	59.1
m1 = 0.002	–	–	57.9
m1 = 0.003	–	–	54.5
m1 = 0.004	–	–	51.1
m1 = 0.005	–	–	49
m1 = 0.006	–	–	49.9
m1 = 0.00605	999.199	1484.1	–
m1 = 0.007	–	–	47.7
m1 = 0.00716	999.381	1484.6	–
m1 = 0.00794	999.509	1484.8	–
m1 = 0.008	–	–	45.9
m1 = 0.00898	999.679	1485.1	–
m1 = 0.01001	999.848	1485.3	–
m1 = 0.01999	1001.44	1487.5	–
m1 = 0.025	–	–	44.3
m1 = 0.02935	1002.91	1489.3	–
m1 = 0.04	1004.55	1491.5	44.6
m1 = 0.0506	1006.17	1492.8	–
m1 = 0.05999	1007.59	1494.4	–
m1 = 0.075	–	–	44
m1 = 0.0803	1010.64	1496.9	–
m1 = 0.1	1013.53	1499	44.5
m1 = 0.1248	1017.05	1501.5	–
m1 = 0.125	–	–	44.1
m1 = 0.149	1020.45	1503.8	–
m1 = 0.15	–	–	44.6
m1 = 0.1752	1023.98	1506.3	–
